From patent US20130324439A1, “Elastic Modulus-modified MicroEnvironment microArrays (eMEArrays) and Uses Thereof” (The Regents of the University of California, priority 2012, published 2013)
“Also recorded” adds a separate entry of the source.

Assays:
HER2 = assay: Phospho-specific intracellular flow cytometry, ratio of pHER2 to total HER2 in HCC1569; format: cell-based; settings: for Modulus-dependent regulation of pHER2/HER2 ratio in treated cells: HCC1569, inhibitor for 24 hours on PA gels of differing compliance
Excerpt: FIG. 13 is a graph showing by using intracellular flow cytometry to analyze the pHER2 and HER2 expression level of HCC1569, that cells on softer gel have higher pHER2/HER2 ratio and less EdU incorporation, vice versa, and then compared to the drug response. Thus stiffness can alter HER2 regulation and drug response. pHER2/HER2 ratios are altered in a modulus-dependent manner. (blue line) pHER2/HER2 ratios as determined with phosphor specific flow cytometry on HCC1569 cells cultured 4 days on different compliance substrata. (red line) Responses to lapatinib determined by EdU incorporation in HCC1569 as a function of substrate compliance
To better understand why changing the elastic modulus of the culture substrata altered sensitivity to lapatinib on PA gels we used phospho-specific intracellular flow cytometry techniques to measure the ratio of phosphorylated HER2 (pHER2, which is considered activated) to total HER2. Cells were first fixed and stained with an antibody that recognized total HER2 on the cell surface, then the cells were permeabilized and stained for pHER2 prior to multicolor analysis on a flow cytometer.
To determine whether the actinomyosin network is involved in regulating the modulus-dependent regulation of HER2, HCC 1569 were exposed to Blebbistatin or Y27632 for 24 hours on PA gels of differing compliance. […] Thus the actinomyosin network is likely important in modulus-dependent regulation of HER2.

[1] = system: HER2+ breast cancer cell line HCC1569; assay: EdU incorporation (DNA synthesis) of HCC1569 on 2D tissue culture plastic, PA gels of tuned elastic modulus or 3D Matrigel; settings: for Effect of actinomyosin network inhibitor on the modulus-dependent lapatinib response: HCC1569 on PA gels, 1 hr w/inhibitors; for Response to lapatinib (EdU incorporation), 3D Matrigel culture versus 2D tissue culture plastic: 4 days growth then 2 days with 1.5 μM Lapatinib; for Effect of inhibitor added with lapatinib on the 3D context-dependent response (EdU incorporation): 3D Matrigel versus 2D TC plastic; for Effect of inhibitor alone on EdU incorporation: TC plastic or 3D Matrigel, without lapatinib
Procedure: (§1) The cells were grown on plastic tissue culture dishes (2D) vs. PA gels, and 3D on top, RPMI1640 with 1% FBS and 5% Matrigel 4 days growth then 2 days with 1.5 μM Lapatinib.
(§2) We sought to determine if HER-2 drug response was different between 2D and 3D culture environment and whether that difference is due to different substrata stiffness. Cells were grown on plastic tissue culture dishes (2D), functionalized polyacrylamide cell culture (PA) gels, and in 3D (Matrigel on top, RPMI1640 with 1% FBS and 5% Matrigel 4 days growth then 2 days with 1.5 μM Lapatinib).
We next sought to determine if the actinomyosin network plays a role in this different drug response. Cells were grown in 2D, on PA gels, and in 3D Matrigel with 2 days growth, 1 hr w/inhibitors, then 2 days with 1.5 μM lapatinib.
To determine whether the 3D Matrigel context response was due only to the physiological modulus, we combined the actinomyosin network inhibitors together with lapatinib and compared the responses of cells in 3D to cells cultured on 2D TC plastic.
We next sought to determine if the concentration of type I collagen affected HER-2 targeted drug response. Referring now to FIG. 14, cells were subjected to non-coated tissue culture dishes, Collagen I coated tissue coated dishes for 2 days growth, then 2 days with 1.5 μM lapatinib.

HER2- BT549 cells = assay: EdU incorporation of BT549 on 2D plastic, PA gels or 3D Matrigel; format: cell-based; settings: PA gel and 3D, 1.5 μM Lapatinib
Procedure: as §1, §2

[2] = system: HER2-expressing breast cancer cell lines; settings: cited from earlier work
HCC1569 cells = assay: eMEArray drug response, EdU-pixels/nucleus-pixels of HCC1569 on printed microenvironments on PA gels
[3] = then 2 days with 1.5 μM lapatinib

Cc1ccc2c(c1)C(=O)C1(O)CCN(c3ccccc3)C1=N2 (stereo not shown) [Blebbistatin]
Modulus-dependent regulation of pHER2/HER2 ratio in treated cells (HER2): absent | Effect of actinomyosin network inhibitor on the modulus-dependent lapatinib response [1, 3]: altered

CS(=O)(=O)CCNCc1ccc(-c2ccc3ncnc(Nc4ccc(OCc5cccc(F)c5)c(Cl)c4)c3c2)o1 [Lapatinib]
Response to lapatinib (EdU incorporation) (HER2- BT549 cells): unaffected | Response to lapatinib (EdU incorporation) (HER2- BT549 cells; listed as lapatinib): did not respond; also recorded: insensitive | Ratio of pHER2 to total HER2 as a function of substrate compliance (HER2; HCC1569 on 400 Pa, 2500 Pa, 4470 Pa, 40 KPa gels or TC plastic, 1.5 uM lapatinib for 4 days): higher ratio of pHER2 to total HER2 on more compliant substrata | Responsiveness in 3D Matrigel culture compared to 2D growth [2]: less responsive | Response of cells on eMEArrays with elastic modulus similar to 40 kPa (HCC1569 cells; 40 kPa): sensitive response | Response of cells on 400 kPa eMEArrays (HCC1569 cells; 400 kPa): resistant response | Responses to lapatinib on other molecular microenvironments relative to type 1 collagen alone (HCC1569 cells; HCC1569, 1.5 μM Lapatinib for 24 hours, EdU for the final 4 hours): widely varied responses | Response to lapatinib (EdU incorporation) on PA gels tuned to 400 Pa, compared with 3D Matrigel ([1]; HCC1569, 400 Pa PA gel crosslinked to type 1 collagen, 1.5 uM lapatinib): very similar results compared to 3D cultures; also recorded: phenocopied the response of HCC1569 grown in 3D Matrigel | Response to lapatinib (EdU incorporation), 3D Matrigel culture versus 2D tissue culture plastic ([1]; HCC1569): inhibited more | Response to lapatinib (EdU incorporation), 3D Matrigel culture versus 2D tissue culture plastic ([1]; HCC1569, listed as lapatinib): more sensitive | Influence of type I collagen concentration on lapatinib response (% EdU incorporation) ([1]; non-coated vs Collagen-I coated TC dishes or PA gels, 2 days growth, then 2 days with 1.5 μM lapatinib): does impact lapatinib response on TC dishes, but less so on low modulus gels

O=S(=O)(c1cccc2c(I)cccc12)N1CCCNCC1 [ML-7]
Effect of inhibitor added with lapatinib on the 3D context-dependent response (EdU incorporation) ([1]; HCC1569): eliminated any context-driven differences | Effect of inhibitor alone on EdU incorporation ([1]; HCC1569): did not have any effect | Effect of actinomyosin network inhibitor on the modulus-dependent lapatinib response [1, 3]: altered | Effect of combination with Lapatinib on cells on 2D PA gels ([1]; combination of ML-7 with Lapatinib, 2D PA gels): synergistic response that caused massive cell death | Effect of lapatinib and ML-7 together on cells in 3D ([1]; lapatinib and ML-7, 3D Matrigel): no such synergistic effect

C[C@@H](N)[C@H]1CC[C@H](C(=O)Nc2ccncc2)CC1 [Y27632]
Modulus-dependent regulation of pHER2/HER2 ratio in treated cells (HER2): absent | Effect of inhibitor added with lapatinib on the 3D context-dependent response (EdU incorporation) ([1]; HCC1569): did not alter | Effect of inhibitor alone on EdU incorporation ([1]; HCC1569): did not have any effect | Effect of actinomyosin network inhibitor on the modulus-dependent lapatinib response [1, 3]: altered
